Assays:
NF-κB = assay: UV-induced NF-κB activation, immunohistochemical staining; type: cell-based, human; conditions: HaCaT cells; 25 μM; UV 100 J/m^2; 4 hours
Description: In order to investigate whether the transcription factor NF-κB is activated, the human keratinocyte cell line HaCaT cells were stained by immunohistochemical staining as follows.
The cells were placed on a 14 mm culture slide and cultured for 24 hours in DMEM containing 10% FBS. Subsequently, the cells were cultured for 24 hours in DMEM containing 1% FBS until starvation. Then, after treating with 25 μM capsiate for 30 minutes, followed by washing 3 times with PBS, UV was irradiated at an intensity of 100 J/m^2. Immediately after the UV irradiation, the cells were washed again with PBS and further cultured for 4 hours in DMEM containing 1% FBS, which was treated with capsiate at the same concentration as in the pre-treatment. The cells were fixed for 5 minutes using methanol for immunohistochemical staining.
The fixed cells were blocked using 10% normal goat serum and washed 3 times with PBS. After fluorescence staining NF-κB using rabbit anti-NF-κB antibody (Santa Cruz, USA) and Alexa 488-labeled anti-rabbit IgG secondary antibody (Invitrogen, USA), counter staining was carried out using Hoechst (Sigma, St. Louis, Mo.).

JNK = assay: MAPK signaling after UV, Western blotting: JNK; type: cell-based, human; conditions: HaCaT cells; 10, 25, 50 μM; 30 minutes after UV irradiation
Description: Western blotting was performed in the same manner as in Example 2-1 in order to identify the factor that affects the COX-2 expression regulated by capsiate, except for treating the cells with capsiate at different concentrations (10 μM, 25 μM and 50 μM) prior to UV irradiation, and using rabbit anti-ERK antibody, rabbit anti-p-ERK antibody, rabbit anti-p38 antibody, rabbit anti-p-p38 antibody, rabbit anti-JNK antibody and rabbit anti-p-JNK antibody (cell signaling), and anti-rabbit IgG-HRP conjugation antibody (Zymed) as the secondary antibody, 30 minutes after UV irradiation.

IL-6 = assay: UV-induced IL-6 mRNA in hairless mouse skin, RT-PCR; type: in vivo; conditions: 200 μL of 1 mM topically 1 hour before UV 5 kJ/m^2 once, 6 hours later
Description: In order to investigate the effect of capsiate on the production of IL-6 and TNF-α induced in skin tissue during inflammatory response, the inhibition ability of capsiate against the expression of the pro-inflammatory cytokines was evaluated in animal model as follows. Test groups were as follows: non-treated group—treated with acetone only without UV irradiation; test group A—treated with 200 μL of 1 mM capsiate dissolved in acetone without UV irradiation; UV group—treated with acetone and UV; test group B—treated with 200 μL of 1 mM capsiate dissolved in acetone followed by UV irradiation 1 hour later.
To this end, acetone and capsiate were treated prior to UV irradiation. After treating with UV once at an intensity of 5 kJ/m^2, hairless mouse was euthanized 6 hours later. mRNA was extracted from the mouse tissue obtained by skin biopsy and RT-PCR was carried out as follows. For RNA extraction from the tissue, each mouse tissue obtained by skin biopsy was quickly frozen in liquid nitrogen and ground finely using a mortar. RNA was extracted from the mouse tissue using Trizol (Invitrogen, USA), and PCR (PTC-225 Peltier thermal cycler, MJ Research, USA) was carried out using it as template and using a commercial kit (reverse transcription system, Qiagen, USA). As a result, cDNA was prepared from each group. […]

Ki67 = Ki67 expression in mouse skin, immunohistochemical staining; type: in vivo; conditions: mouse skin tissue of Example 5
Description: (§1) In order to investigate the effect of capsiate on various intracellular angiogenesis-related expression factors, the inhibition effect of capsiate on angiogenesis factors induced by UV was evaluated using the mouse tissue of Example 5.
Mouse skin tissue obtained by skin biopsy was immersed in OCT compound (Sakura Finetechnical Co. Ltd, Japan) and slowly frozen in liquid nitrogen. Thus prepared tissue was sliced with a thickness of 7 μm and fixed on a slide using acetone. The tissue was washed with distilled water and PBS and, after blocking for 1 hour using 10% normal goat serum, incubated at 4° C. for at least 16 hours using ki67 antibody (1:100, Neomarker, USA). After washing 3 times with PBS, the tissue was treated with Alexa 488-conjugated secondary antibody (Invitrogen, USA) for 30 minutes and then washed 3 times. The tissue was mounted and observed under a fluorescence microscope (Carl Zeiss, USA).

PECAM-1 (CD31) = assay: PECAM-1 expression in mouse skin, immunohistochemical staining; type: in vivo; conditions: mouse skin tissue of Example 5; treated prior to UV irradiation
Description: as §1
To investigate this effect, the paraffin-embedded tissue prepared as in Example 6 was processed in the same manner as Example 6, treated with PECAM-1 antibody (1:100, BD Pharmingen, USA) on a slide, treated with biotinylated secondary antibody (DAKO code K0675; DAKO Corp., USA) for 30 minutes, and washed 3 times. After treatment with streptavidin-peroxidase (DAKO code K0675, DAKO Corp., USA) for 30 minutes, followed by washing 3 times with PBS, the tissue was stained using DAB (DAKO Corp., USA) for confirmation of the level of PECAM-1 expression.

hairless mouse = assay: UV-induced erythema in hairless mouse; type: in vivo; conditions: 200 μL of 1 mM topically, UV 400, 600 and 800 J/m^2, 48 hours later
Description: When the skin is exposed to UV, erythema, or […] of the skin, occurs accompanied by edema, prior to a variety of cellular changes including inflammation, apoptosis, carcinogenesis, or the like [Tadashi Terui, Hachiro Tagami, Mediators of inflammation involved in UVB erythema, Journal of Dermatological Science 23 Suppl. 1 (2000) S1S5]. In order to investigate the effect of capsiate on erythema accompanied by UV-induced inflammatory response, experiment was carried out as follows using hairless mouse. Test groups were as follows: non-treated group—treated with acetone only without UV irradiation; test group A—treated with 200 μL of 1 mM capsiate dissolved in acetone without UV irradiation; UV group—treated with acetone and UV; test group B—treated with UV and 200 μL of 1 mM capsiate dissolved in acetone every 24 hours.
Acetone or capsiate diluted in acetone was applied on the back of the mouse of each test group. 1 hour later, a mask was attached on the back of the mouse such that UV could be irradiated only on an area of 1.2 cm×1.2 cm. UV was irradiated at an intensity of 400, 600 and 800 J/m^2. The degree of erythema was measured 48 hours later.

COc1cc(COC(=O)CCCC/C=C/C(C)C)ccc1O [capsiate]
UV-induced migration of NF-κB into the nuclei (NF-κB): inhibits | JNK (phosphorylation) (JNK): no particular change | UV-induced expression of IL-6 (mRNA) in skin tissue (IL-6): decrease | expression of Ki67 increased by UV (Ki67): significantly inhibited | level of PECAM-1 expression (PECAM-1 (CD31)): significantly lower | degree of erythema (hairless mouse): weaker
